For series [1], the system named is reconstructed human epidermis (RhE) model (SkinEthic-RHE). In words: Skin irritation test, reconstructed human epidermis model, MTT cell viability. It counts as cell-based. How it is done:
A skin irritation test was performed in accordance with OECD Test Guidelines (No. 439), and SKINETHIC SKIN IRRITATION TEST, which is a TEST METHOD FOR THE PREDICTION OF ACUTE SKIN IRRITATION OF CHEMICALS and is a protocol published by the European Centre for the Validation of Alternative Methods (ECVAM). […] The cell viability of the RhE model was measured by an MTT method. In the MTT method, the cell viability is measured by quantitatively determining blue formazan utilizing a property that MTT (3-(4,5-dimethylthiazol-2-yl)-2,5-diphenyltetrazolium bromide, thiazolyl blue), which is a vital staining dye, is reduced to blue formazan by enzymatic reaction of viable cells. […]
After exposing the test sample for 42 minutes, the test sample was immediately removed from the epidermis model by a washing operation and cultured in fresh growth medium for an additional 42 hours. […] Thereafter, the epidermis model was immersed in isopropanol for 2 hours to extract blue formazan in the epidermis model, and the absorbance at 570 nm of the extraction liquid was measured with a microplate reader. The same treatment was performed on the epidermis model exposed to the negative control and the positive control to measure the absorbance. […]

Series [2] deals with Normal human epidermal keratinocytes. In words: Action of activating epidermal cells (MTT reduction). It counts as cell-based. Conditions: for Index (%) Mean ± S.D.: 48 h, untreated cells = 100. How it is done: Normal human epidermal keratinocytes were seeded on 96-well plates at the density of 5.0×10^3 cells/well using a HuMedia KG2 medium (KG2). 24 hours after seeding, the above-mentioned medium was replaced with a HuMedia KB2 medium (KB2) comprising the test sample. AOH and AHX (2-azahypoxanthine) were used as test samples, KG2 as a positive control (P. C.) for the cell activating action was treated instead of the test sample, and cells which were not treated with the samples were used as a negative control. After culturing for 48 hours, the above-mentioned medium was replaced with KB2 comprising 0.2 mg/mL of MTT to perform culturing for 1 hour. After removing the medium, the absorbance at 550 nm and 650 nm of the cell lysate in which 2-propanol was added to lyse the cells was measured. The amount of MTT reduced to blue formazan was obtained by subtracting the absorbance at 650 nm, which was derived from the cell turbidity, from the absorbance at 550 nm. The action of activating epidermal keratinocytes was shown as Index (%), which is a percentage of the absorbance of the cells, which was treated with the test samples, to the absorbance of the cells, which was not treated with the samples (negative control), with the amount of MTT reduced as an index.
Background: Formazan colour is commonly taken as a measure of viable cells.

Series [3] is described as follows: Test of long-term continuous use (double blind, half face): water content of keratin and TEWL. The following applies: conclusion from 8-week use of toner with 0.1% by weight AOH. It counts as in vivo, human. The method, then:
A test of long-term continuous use (double blind test) was performed using a toner (toner B) comprising 0.1% by weight of AOH of Example 4 and a placebo toner (toner A) having the same composition as that of the toner of Example 4 except that AOH was not comprised to perform evaluation of the water content of keratin and the transepidermal water loss (TEWL). 22 test subjects (females, average age 48.4±4.68 years old) were asked to apply the toner A on the half face and the toner B on the other half face after washing their faces twice in the morning and evening, and this was continued for 8 weeks. The water content of keratin and the TEWL were measured at the start of the test, after 4 weeks, and after 8 weeks. The water content of stratum corneum and the TEWL on the left and right cheek portions of the test subjects were measured using each of SKICON-200EX (Yayoi Co., Ltd.) and Cyclone Moisture Evaporator AS-CT1 (ASCH Japan Co., Ltd.). Analysis of test results was performed on 20 subjects as effective test subjects excluding 2 test subjects whose left-right difference in the water content of keratin at the start of the test was 150 μS or more.

The nature of series [4]: Mutagenicity test (Ames test) (OECD TG471). The class given is cell-based. (The Ames test uses bacterial strains that need an amino acid and regain growth without it when mutated back.)
The nature of series [5]: In vitro skin sensitization test (DPRA method) (OECD TG442C). The class given is biochemical.
A short description of series [6]: In vitro phototoxicity test (OECD TG432). It counts as cell-based.
A short description of a further series: Human patch test. The following applies: in vivo.

For `O=c1[nH]c2nn[nH]c(=O)c2[nH]1` [AOH, 3H-imidazo[4,5-d][1,2,3]triazine-4,6(5H,7H)-dione], in series [1] (42 min exposure, 42 h post-culture, MTT, PBS (−) negative control as 100%), the “cell viability of the skin model” value was determined as 100%. In addition, the skin irritation determination entry in series [1] (RhE model, OECD TG 439) is “non-irritating”. For the same compound, the “Index (%) Mean ± S.D.” value is recorded as 105.7 ± 4.5% in series [2] (3.9 μg/mL); 108.4 ± 4% in series [2] (7.8 μg/mL); 108.7 ± 5.6% in series [2] (15.6 μg/mL); 109.7 ± 5.2% in series [2] (31.3 μg/mL); 102.3 ± 2.8% in series [2] (62.5 μg/mL); 98.6 ± 0.7% in series [2] (125 μg/mL). In addition, the “Index (%) Mean ± S.D.” value in series [2] (250 μg/mL) is recorded as 94.2 ± 1.7%; in series [2] (500 μg/mL) it was 91.9 ± 0.9%. Further, in series [2] (AOH versus AHX), the cytotoxicity compared entry is recorded as “lower cytotoxicity than AHX”. For the same compound, the “change in Index” value in series [2] (concentrations of 7.8 to 31.3 μg/mL) is “significant increase in Index”. For the same compound, the “proliferative effect / cell activating action” value in series [2] (epidermal keratinocytes) was “has the cell activating action”. Also, the “moisturizing effect on the skin” value in series [3] was “has the moisturizing effect on the skin”. Besides, the “toxicity in mutagenicity test (Ames test)” value in series [4] is recorded as “toxicity was not recognized”. Moreover, in series [5], the “toxicity in in vitro skin sensitization test (DPRA method)” value is on record as “toxicity was not recognized”. In addition, the “toxicity in in vitro phototoxicity test” value in series [6] is on record as “toxicity was not recognized”. Further, the “toxicity in human patch test” value in the series “Human patch test” is given as “toxicity was not recognized”.

Source of the values: patent publication US12527801B2, “Cell activator of animal cell” (Vitamin C60 BioResearch Corporation, priority 2019, dated 2026).
